Results reported in patent US8877765B2, “Highly soluble pyrimido-dione-quinoline compounds and their use in the treatment of cancer” (The United States of America as represented by the …, priority 2006, dated 2014).
Where a SMILES comes first, the peptide text is derived from it. [ ]: non-standard residue; d: D form. Nle = CCCC[C@H](N)C(=O)O

Columns and labels:
Hdm2 [1] = target: T1, Hdm2 (Homo sapiens, UniProt Q00987); conditions: U2OS cells; FIG. 6
gp78 (AMFR) = gp78 (AMFR) (Homo sapiens, UniProt Q9UKV5); experiment: E3 specificity: level of transfected gp78 in MEFs expressing neither Mdm2 nor p53; conditions: immunoblotting, FIG. 5
Description: (§1) Following treatment with ALLN, 1, 2 (10-(4-methyl-phenyl)-7-nitro-10H-pyrimido[4,5-b]quinoline-2,4-dione), 3 (10-(4-chloro-phenyl)-7-nitro-10H-pyrimido[4,5-b]quinoline-2,4-dione), and 4 (10-(3-chloro-phenyl)-7-nitro-10H-pyrimido[4,5-b]quinoline-2,4-dione), levels of the E3s were examined by immunoblotting with specific antibodies.

AO7 (RNF25) = experiment: E3 specificity: level of transfected AO7 in MEFs expressing neither Mdm2 nor p53; conditions: immunoblotting, FIG. 5
Description: as §1

Hdm2 [2] = target: T1, Hdm2; experiment: E3 specificity: level of transfected Hdm2 in MEFs expressing neither Mdm2 nor p53; conditions: immunoblotting, FIG. 5
Description: as §1

Hdm2 and p53 = experiment: Accumulation of Hdm2 and p53 in non-transformed RPE cells (immunoblot); type: cell-based, human; conditions: 8 hours, 5 μM or 10 μM solution in PBS, or 5 μm solution in DMSO, FIG. 1
Description: Human retina pigment epithelial (RPE) cells were cultured with HyQ DME/F (HyClone) supplemented with 10% FCS and 2.5% Sodium Bicarbonate. They were harvested with Trpsin-EDTA and seeded into a 12-well tissue culture cluster and incubated for 18-40 hours to reach 80% confluent. Following treatment with indicated compounds for 8 hours, the cells were harvested and lysed with RIPA buffer. Following removal of insoluble pellet by centrifugation for 20 minutes at 10000 rpm, the lysate was separated on a 4-20% gradient SDS-polyacrylamide gel and transferred onto nitrocellulose membrane. The membrane was then blotted with anti-p53 antibody (DO-1) anti-Hdm2 antibodies (Ab-1 and Ab-2). After extensive washing with PBS containing 0.5% Triton x-100, it was incubated with HRP-conjugated donkey anti-mouse antibody and visualized using enhanced chemiluminescence.

[3] = tested on: tumor cells expressing wild type p53; experiment: Apoptosis-inducing activity in tumor cell lines that do or do not express p53; type: cell-based; conditions: pair of cell lines that either do or do not express p53; FIG. 7
[4] = Additional experiments on DNA damage (data not shown)
p53 = p53 response element-driven luciferase reporter in U2OS cells; type: cell-based; conditions: 18 hours, FIG. 3
Description: U2OS cells stably transfected with a p53 response element-driven luciferase were treated with indicated concentration of compounds for 18 hours. The cells were then harvested and lysed to measure luciferase activity using the luciferase assay system (Promega) according to manufacturer's instruction.

T1 sequence (Q00987 whole entry): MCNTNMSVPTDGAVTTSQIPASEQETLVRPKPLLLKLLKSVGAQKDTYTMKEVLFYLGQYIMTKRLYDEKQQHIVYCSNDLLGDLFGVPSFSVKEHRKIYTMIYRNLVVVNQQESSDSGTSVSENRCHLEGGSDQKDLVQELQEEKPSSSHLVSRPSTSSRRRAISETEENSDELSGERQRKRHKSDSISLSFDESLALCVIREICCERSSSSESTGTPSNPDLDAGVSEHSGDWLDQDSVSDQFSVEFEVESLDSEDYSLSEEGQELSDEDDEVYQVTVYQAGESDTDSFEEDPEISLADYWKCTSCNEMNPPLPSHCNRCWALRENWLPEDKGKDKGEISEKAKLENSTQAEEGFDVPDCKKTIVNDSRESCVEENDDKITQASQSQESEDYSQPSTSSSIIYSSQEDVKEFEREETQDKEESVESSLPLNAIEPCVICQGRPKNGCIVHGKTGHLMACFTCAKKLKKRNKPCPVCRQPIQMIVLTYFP
Sequence of gp78 (AMFR) (Q9UKV5 whole entry, species assumed): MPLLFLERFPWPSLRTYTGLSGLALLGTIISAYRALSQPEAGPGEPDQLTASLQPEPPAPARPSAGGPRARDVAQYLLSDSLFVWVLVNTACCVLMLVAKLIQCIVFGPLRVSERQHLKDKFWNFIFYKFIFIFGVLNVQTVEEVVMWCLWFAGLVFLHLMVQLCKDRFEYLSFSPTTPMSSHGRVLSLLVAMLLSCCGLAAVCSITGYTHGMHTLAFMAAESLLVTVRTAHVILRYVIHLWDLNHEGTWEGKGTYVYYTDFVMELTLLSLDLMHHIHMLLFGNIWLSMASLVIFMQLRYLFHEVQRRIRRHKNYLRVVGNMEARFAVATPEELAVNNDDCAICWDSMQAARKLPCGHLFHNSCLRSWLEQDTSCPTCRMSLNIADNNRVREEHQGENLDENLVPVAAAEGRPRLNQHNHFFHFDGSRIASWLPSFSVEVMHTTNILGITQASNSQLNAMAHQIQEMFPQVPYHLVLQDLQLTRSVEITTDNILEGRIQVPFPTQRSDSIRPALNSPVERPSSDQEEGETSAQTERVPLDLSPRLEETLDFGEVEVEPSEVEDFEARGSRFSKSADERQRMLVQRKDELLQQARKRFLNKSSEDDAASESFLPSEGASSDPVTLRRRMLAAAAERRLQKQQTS

SMILES	accumulation of ubiquitylated p53 (Hdm2 [1])	degradation / stabilization of p53 and Hdm2 (Hdm2 [1])	level of gp78 (gp78 (AMFR))	level of AO7 (AO7 (RNF25))	level of Hdm2 (Hdm2 [2])	accumulation of both Hdm2 and p53 (Hdm2 and p53)	killing of tumor cells by p53 status [3]	functioning by inducing DNA damage [4]	capacity to activate a p53 reporter (luciferase activity) (p53)	p53 reporter activity compared with proteosome inhibitor and Adriamycin (p53; concentration of 10 μM)
CCCC[C@@H](C=O)NC(=O)[C@H](CC(C)C)NC(=O)[C@H](CC(C)C)NC(C)=O [ALLN] (Ac-Leu-Leu-[Nle]-aldehyde)	easily detectable	stabilized Hdm2 and p53	higher levels	higher levels	higher levels	–	–	–	–	–
CN(C)CCCNc1c2c(=O)n(C)c(=O)nc-2n(C)c2ccccc12 [Compound 1, 5-(3-Dimethylamino-propylamino)-3,10-dimethyl-10H-pyrimido[4,5-b]quinoline-2,4-dione]	–	–	little effects	–	–	significant accumulation of both Hdm2 and p53	preferential killing of tumor cells expressing wild type p53	ruled out	high capacity to activate a p53 reporter	much greater than proteosome inhibitor and Adriamycin
